Consider 30 molecules from US6063782A, “Pyrrolopyridazine derivatives” (Sankyo Company, Limited, priority 1994, dated 2000).

In one assay the test system is Helicobacter pylori strains 9470, 9472 and 9474. The experiment in a line: Antibacterial activity against Helicobacter pylori. Particulars: strains 9470, 9472 and 9474, 37° C., 3 days, slightly aerobic; result given in words only. Format: cell-based. As for the experimental part:
Antibacterial activity against Helicobacter pylori The antibacterial activity of the compounds of the present invention were evaluated by measuring the minimum inhibitory concentration values (MIC) of the present compounds against Helicobacter pylori strains 9470, 9472 and 9474. These strains of Helicobacter pylori were incubated for 4 days on a plate medium. The medium was prepared by dissolving brain heart infusion agar (Product of DIFCO) in a defined amount of distilled water, by sterilization in an autoclave, injecting horse blood (Product of Nihon Seibutsu Zairyo Co.) into each plate for the medium to contain 7% of the blood and by solidifying. Under slightly aerobic conditions, Helicobacter pylori cultivated at 37° C. for 4 days was suspended in a physiological saline solution for its inocular size to be about 10^8 CFU/ml. The suspension was diluted 100 times, and about 10 μl of the diluted suspension was inoculated on a medium for MIC determination. The medium for MIC determination used had the same compounds as those for preculture. […] In a similar way to the preculture, Helicobacter pylori was cultivated at 37° C. for 3 days under slightly aerobic conditions. […] The minimum concentration which gave no bacterial growth was regarded as MIC of the compound of the present invention.
Turning to `C=CCn1c(C)c(C)c2cnnc(SCc3ccc(F)cc3)c21` [Example 34, 7-(4-Fluorobenzylthio)-2,3-dimethyl-1--(2-propenyl)ipyrrolo[2,3-d]pyridazine], the “minimum inhibitory concentration (MIC) against Helicobacter pylori” value (“minimum inhibitory concentration (MIC)” below) is “excellent antibacterial activity”.
Same read-out and setting: next, `CC(C)=CCn1c(C)c(C)c2cnnc(OCc3ccccc3)c21` [Example 2, 7-Benzyloxy-2,3-dimethyl-1-(3-methyl-2-butenyl)pyrrolo[2,3-d]pyridazine]: “excellent antibacterial activity”.
Still for that read-out and setting: next, `C=CCn1c(C)c(C)c2cnnc(OCc3ccc(C(F)(F)F)cc3)c21` [Example 25, 2,3-Dimethyl-1-(2-propenyl)-7-(4-trifluoromethylbenzyloxy)pyrrolo[2,3-d]pyridazine]: “excellent antibacterial activity”.
On the same count and under the same terms, next, `Cc1c(C)n(CC(F)F)c2c(OCc3ccccc3)nncc12` [Example 20, 7-Benzyloxy-1-(2,2-difluoroethyl)-2,3-dimethylpyrrolo[2,3-d]pyridazine]: “excellent antibacterial activity”; `C=C=Cn1c(C)c(C)c2cnnc(OCc3ccccc3)c21` [Example 45, 7-Benzyloxy-2,3-dimethyl-1-(propane-1,2-dienyl)pyrrolo[2,3-d]pyridazine]: “excellent antibacterial activity”; `C=CCn1c(C)c(CC)c2cnnc(OCc3ccccc3)c21` [Example 27, 7-Benzyloxy-3-ethyl-2-methyl-1-(2-propenyl)-6pyrrolo[2,3-d]pyridazine]: “excellent antibacterial activity”.
On to `C=CCn1c(C)c(C)c2cnnc(OCc3cccc(F)c3)c21` [Example 8, 7-(3-Fluorobenzyloxy)-2,3-dimethyl-1-(2-propenyl)pyrrolo[2,3-d]pyridazine], for which the “minimum inhibitory concentration (MIC)” value is recorded as “excellent antibacterial activity”.
For `Cc1c(C)n(CCCF)c2c(OCc3ccccc3)nncc12` [Example 19, 7-Benzyloxy-1-(3-fluoropropyl)-2,3-dimethylpyrrolo[2,3-d]pyridazine], the “minimum inhibitory concentration (MIC)” value is recorded as “excellent antibacterial activity”.
On the same count and under the same terms, next, `C=CCn1c(C)c(C)c2cnnc(OCc3ccc(Cl)cc3)c21` [Example 12, 7-(4-Chlorobenzyloxy)-2,3-dimethyl-1-(2-propenyl)povrrolo[2,3-d]pyridazine]: “excellent antibacterial activity”.
The same measure, in the same setting: next, `Cc1c(C)n(C/C=C/c2ccccc2)c2c(OCc3ccc(F)cc3)nncc12` [Example 24, 7-(4-Fluorobenzyloxy)-2,3-dimethyl-1-(3-phenyl-2-propenyl)pyrrolo[2,3-d]pyridazine]: “excellent antibacterial activity”.
Take `C=CCn1c(C)c(C)c2cnnc(OCc3ccccc3F)c21` [Example 10, 7-(2-Fluorobenzyloxy)-2,3-dimethyl-1-(2-propenyl)nvrrolo[2,3-d]pyridazine]: the “minimum inhibitory concentration (MIC)” value is “excellent antibacterial activity”.
The same measure, in the same setting: next, `Cc1c(C)n(C2CCCCC2)c2c(OCc3ccccc3)nncc12` [Example 23, 7-Benzyloxy-1-cyclohexyl-2,3-dimethylpyrrolo[2,3-d]pyridazine]: “excellent antibacterial activity”.
On the same count and under the same terms, the entry for `CC=CCn1c(C)c(C)c2cnnc(SCc3c(F)cccc3Cl)c21` [Example 52, 1-(2-Butenyl)-7-(2-chloro-6-fluorobenzylthio)-2,3-dimethylpyrrolo[2,3-d]pyridazine] is “excellent antibacterial activity”; for `CC=CCn1c(C)c(C)c2cnnc(SCc3ccc(F)cc3)c21` [Example 50, 1-(2-Butenyl)-7-(4-fluorobenylthio)-2,3-dimethylpyrrolo[2,3-d]pyridazine] it is “excellent antibacterial activity”; for `Cc1c(C)n(CC(F)(F)F)c2c(OCc3ccccc3)nncc12` [Example 15, 7-Benzyloxy-2,3-dimethyl-1-(2,2,2-trifluoroethyl)pyrrolo[2,3-d]pyridazine] it is “excellent antibacterial activity”.
The same measure, in the same setting: the entry for `CC=CCn1c(C)c(CC)c2cnnc(OCc3ccc(F)cc3)c21` [Example 56, 1-(2-Butenyl)-3-ethyl-7-(4-fluorobenzyloxy)-2-methylpyrrolo[2,3-d]pyridazine] is “excellent antibacterial activity”; for `C=Cn1c(C)c(C)c2cnnc(OCc3ccccc3)c21` [Example 13, 7-Benzyloxy-2,3-dimethyl-1-vinylpyrrolo[2,3-d]pyridazine] it is “excellent antibacterial activity”.
`Cc1c(C)n(C/C=C/c2ccccc2)c2c(OCc3ccccc3)nncc12` [Example 6, 7-Benzyloxy-2,3-dimethyl-1-(3-phenyl-2-propenyl)pyrrolo[2,3-d]pyridazine]: the “minimum inhibitory concentration (MIC)” value is given as “excellent antibacterial activity”.
The same measure, in the same setting: next, `C/C=C\Cn1c(C)c(C)c2cnnc(OCc3ccc(F)cc3)c21` [Example 29, 1-(2-Butenyl)-7-(4-fluorobenzyloxy)-2,3-dimethylpyrrolo[2,3-d]pyridazine]: “excellent antibacterial activity”.
On the same count and under the same terms, next, `Cc1c(C)n(CCF)c2c(OCc3ccccc3)nncc12` [Example 18, 7-Benzyloxy-1-(2-fluoroethyl)-2,3-dimethylpyrrolo[2,3-d]pyridazine]: “excellent antibacterial activity”; `CC=CCn1c(C)c(C)c2cnnc(SCc3ccc(F)cc3F)c21` [Example 51, 1-(2-Butenyl)-7-(2,4-difluorobenzylthio)-2,3-dimethylpyrrolo[2,3-d]pyridazine]: “excellent antibacterial activity”.

The test system of a further assay is gastric acid secretion. Briefly: Gastric acid secretion activity test using pyloric ligation in rats (Shay rat method). Type of assay: in vivo. To be noted: male SD rats, 20 mg/kg injected into the duodenal region, 4 hours, result given in words only. As for the experimental part: Gastric acid secretion activity test using pyloric ligation in rats (Shay rat method)
Pyloric ligation was conducted based on the method of Shay et al. [Gastroenterology, 5, 43 (1945)]. Male rats of SD strain were fasted for 24 hours; their abdomens were sectioned during anesthesia under ether. The duodenal and pyloric regions were exposed and the latter was ligated. A solution of a test compound (10 mg/ml) prepared by use of 1.5w parts of dimethylacetamide, 68.5% parts of polyethyleneglycol (PEG-400) and 30% parts of physiological saline solution, was injected into the duodenal region for the dose to be 20 mg/kg by use of a 1-ml syringe and an injection needle (26G). After injection of the test compound, the abdominal region was sutured. The animals were allowed to a stand for 4 hours without feeding food and water and then sacrified with carbon dioxide gas. The stomach was excised and gastric juice was gathered. The gastric juice sample was centrifuged (4° C., 2500 rpm, 15 minutes). The amount of the supernatant was measured to be as the gastric secretion. The acidity of the gastric juice was determined by the amount (ml) of 0.01 N sodium hydroxide solution required for titration of 0.1 ml of the supernatant to pH 7.0 by use of-an auto-titrating apparatus. The value of gastric acid secretion was calculated from the value of gastric secretion and the acidity of gastric juice. The inhibiting rate was obtained from the values of gastric acid secretion of the control group and of the administered group.
With `C/C=C/Cn1c(CC)c(C)c2cnnc(OCc3ccc(F)cc3)c21` [Example 33, 1-(2-Butenyl)-2-ethyl-7-(4-fluorobenzyloxy)-3-methylpyrrolo[2,3-d]pyridazine], the “inhibiting rate of gastric acid secretion” value (“inhibiting rate” below) is recorded as “excellent activity”.
Still for that read-out and setting: next, `C#CCn1c(C)c(C)c2cnnc(OCc3ccccc3)c21` [Example 42, 7-Benzyloxy-2,3-dimethyl-1-(2-propynyl)pyrrolo[2,3-d]pyridazine]: “excellent activity”; `Cc1c(C)n(CC=C(Cl)Cl)c2c(OCc3ccccc3)nncc12` [Example 41, 7-Benzyloxy-1-(3,3-dichloro-2-propenyl)-2,3-dimethylpyrrolo[2,3-d]pyridazine]: “excellent activity”.
`CC=CCn1c(C)c(C)c2cnnc(OCc3cccnc3)c21` [Example 32, 1-(2-Butenyl)-2,3-dimethyl-7-(3-pyridylmethyloxy)pyrrolo[2,3-d]pyridazine]: the “inhibiting rate” value is on record as “excellent activity”.
Same read-out and setting: next, `Cc1c(C)n(CC2CC2C)c2c(CCc3ccccc3)nncc12` (stereo not shown) [Example 68, 2,3-Dimethyl-1-(2-methylcyclopropylmethyl)-7-phenethylpyrrolo[2,3-d]pyridazine]: “excellent activity”; `C=CCn1c(C)c(C)c2cnnc(OCc3ccc(Cl)cc3)c21` [Example 12, 7-(4-Chlorobenzyloxy)-2,3-dimethyl-1-(2-propenyl)povrrolo[2,3-d]pyridazine]: “excellent activity”; `Cc1c(C)n(CC2CCCCC2)c2c(OCc3ccc(F)cc3)nncc12` [Example 37, 1-Cyclohexylmethyl-7-(4-fluorobenzyloxy)-2,3-dimethylpyrrolo[2,3-d]pyridazine]: “excellent activity”.
For `C=C(C)Cn1c(C)c(C)c2cnnc(OCc3ccc(F)cc3)c21` [Example 26, 7-(4-Fluorobenzyloxy)-2,3-dimethyl-1-(2-methyl-2-propenyl)pyrrolo[2,3-d]pyridazine], the “inhibiting rate” value is listed as “excellent activity”.
On to `CC=CCn1c(C)c(C)c2cnnc(CCc3ccc(F)cc3)c21` [Example 62, 1-(2-Butenyl)-7-(4-fluorophenethyl)-2,3-dimethylpyrrolo[2,3-d]pyridazine], for which the “inhibiting rate” value is “excellent activity”.
For `CC=CCn1c(C)c(C)c2cnnc(OCc3c(F)cccc3Cl)c21` [Example 40, 1-(2-Butenyl)-7-(2-chloro-6-fluorobenzyloxy)-2,3-dimethylpyrrolo[2,3-d]pyridazine], the “inhibiting rate” value is on record as “excellent activity”.
